Source: ChEMBL document CHEMBL1150668, “Antimicrobial resveratrol tetramers from the stem bark of Vatica oblongifoliassp. oblongifolia” (2002)
In brackets after ≈: the same amount, converted by molar mass.

Assays:
Staphylococcus aureus = test: Antimicrobial activity against methicillin-resistant Staphylococcus aureus by microdilution method; format: functional
[1] = test system: Mycolicibacterium smegmatis; test: Antimicrobial activity against Mycobacterium smegmatis by microdilution method; format: functional

Oc1ccc([C@@H]2c3c(O)cc(O)cc3[C@@H]3c4c(cc(O)cc4[C@H]2[C@H]2c4cc(O)cc5c4[C@@H](c4cc(O)cc(O)c4[C@@H]2c2ccc(O)cc2)[C@H](c2ccc(O)cc2)O5)O[C@H]3c2ccc(O)cc2)cc1 [HOPEAPHENOL A]
MIC (Staphylococcus aureus): 100 µg/mL (≈ 110 µM)
MIC [1]: 50 µg/mL (≈ 55.1 µM)

Oc1ccc([C@H]2c3c(O)cc(O)cc3[C@@H]3c4c(cc(O)cc4[C@H]2[C@H]2c4cc(O)cc5c4[C@@H](c4cc(O)cc(O)c4[C@@H]2c2ccc(O)cc2)[C@H](c2ccc(O)cc2)O5)O[C@H]3c2ccc(O)cc2)cc1 [ISOHOPEAPHENOL A]
MIC (Staphylococcus aureus): > 100 µg/mL
MIC [1]: > 100 µg/mL

NNC(=O)c1ccncc1 [ISONIAZID]
MIC [1]: 0.8 µg/mL (≈ 5.83 µM)

CN[C@H](CC(C)C)C(=O)N[C@H]1C(=O)N[C@@H](CC(N)=O)C(=O)N[C@H]2C(=O)N[C@H]3C(=O)N[C@H](C(=O)N[C@H](C(=O)O)c4cc(O)cc(O)c4-c4cc3ccc4O)[C@H](O)c3ccc(c(Cl)c3)Oc3cc2cc(c3O[C@@H]2O[C@H](CO)[C@@H](O)[C@H](O)[C@H]2O[C@H]2C[C@](C)(N)[C@H](O)[C@H](C)O2)Oc2ccc(cc2Cl)[C@H]1O [VANCOMYCIN]
MIC (Staphylococcus aureus): 0.8 µg/mL (≈ 0.552 µM)

Oc1ccc([C@@H]2c3c(O)cc(O)cc3[C@@H]3c4c(cc(O)c5c4[C@@H]2[C@H](c2ccc(O)cc2)[C@H]5c2cc(O)cc4c2[C@H](c2cc(O)cc(O)c2)[C@@H](c2ccc(O)cc2)O4)O[C@H]3c2ccc(O)cc2)cc1 [VATICAPHENOL A]
MIC (Staphylococcus aureus): 50 µg/mL (≈ 55.1 µM)
MIC [1]: 25 µg/mL (≈ 27.6 µM)
